# Experimental data taken from patent publication US11773087B2, “GLP-1R receptor agonist compound and use thereof” (SUZHOU VINCENTAGE PHARMA CO., LTD, priority 2020, dated 2023).
# pEC50: −log10 of the molar value. Where two headings read alike, the source gives them in different places.
# How the values were obtained:
# human GLP-1R receptor = target: T1, human GLP-1R receptor (Homo sapiens, UniProt P43220); test: GLP-1R cAMP assay (HTRF, HEK293 cells expressing GLP-1R); assay type: cell-based; conditions: agonistic activity, GLP-1R HEK293 cells
# T1 construct: expressed in transfected cells; host or cells: 'GLP-1R cells' (frozen vial)
# T1 sequence (P43220 24-463): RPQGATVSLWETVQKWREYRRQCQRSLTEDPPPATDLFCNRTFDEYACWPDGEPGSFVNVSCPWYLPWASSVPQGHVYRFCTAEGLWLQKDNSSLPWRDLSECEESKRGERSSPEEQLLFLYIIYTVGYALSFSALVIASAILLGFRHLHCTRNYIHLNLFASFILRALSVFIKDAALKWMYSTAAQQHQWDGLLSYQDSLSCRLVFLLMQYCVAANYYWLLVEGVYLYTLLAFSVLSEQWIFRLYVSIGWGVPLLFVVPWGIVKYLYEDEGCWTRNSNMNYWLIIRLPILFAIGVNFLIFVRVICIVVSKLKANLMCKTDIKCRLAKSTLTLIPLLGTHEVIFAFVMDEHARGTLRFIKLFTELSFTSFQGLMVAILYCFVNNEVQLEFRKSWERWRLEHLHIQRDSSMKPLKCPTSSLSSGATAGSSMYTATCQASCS
# Protocol: Test Embodiment 1: Activity Test of GLP-1R cAMP Assay
# This experiment aims to verify the agonistic activity of the compound of the present disclosure on human GLP-1R receptor.
# Compounds were diluted 4-fold starting at 100 μM from DMSO using Bravo for a total of 10 points.
# The reference compound polypeptide GLP-1 (7-37) was diluted 4-fold starting from 500 nM in DMSO using Bravo for a total of 10 points.
# b) Preparation of Cell Suspension: • 1) 1 vial of GLP-1R cells was quickly thawed in a 37° C. water bath. • 2) The suspension of the cells was transferred to 10 mL of HBSS in a 15 mL conical tube. • 3) The cells were centrifuged at 1000 rpm for 5 min at room temperature to precipitate the cells. • 4) The supernatant was gently aspirated, and being careful not to aspirate the cells. • 5) The cells were relaxed by flicking the precipitation, and then the cell precipitation was re-suspended in 10 mL of HBSS. A sterile pipette was used to move fluid up and down to remove clumps. • 6) The concentration of cells was counted and the cell viability on Vi-cell was determined. • 7) GLP-1R cells were re-suspended in the test buffer at a concentration of 2.0×E5/mL cells. • 8) 10 μL of GLP-1R cell was transferred to OptiPlate-384 well plate.
# c) Transfer of Compound: • 1) 100 nL of compound was transferred to OptiPlate-384 plate using Echo Transfer. • 2) The plate was rotated at 1000 rpm for 5 seconds.
# d) HTRF cAMP Analysis of Agonists: • 1) The plate was incubated at room temperature for 30 minutes before adding detection reagents. • 2) An electric multi-channel pipette was used to add 10 μL of detection reagents respectively. • 3) The 384 well plate was covered with TopSeal-A membrane and incubated for 60 min at room temperature.
# TopSeal-A was unloaded and read on EnVision.
# [1] = Pharmacokinetic evaluation in rats (gavage); assay type: in vivo; conditions: rat, 10 mg/kg single oral gavage, plasma
# Protocol: Test Embodiment 2: Pharmacokinetic Evaluation in Rats
# The drug concentrations in the plasma of rats were tested at different times after the administration of the compounds by gavage using rats as test animals. The pharmacokinetic behavior of the compounds of the present disclosure in rats was studied and their pharmacokinetic characteristics were evaluated. In each group of embodiments, 3 rats with similar body weight were selected and administered orally at a dose of 10 mg/kg for a single administration. Blood was collected from animals at 15 min, 30 min, 1 h, 2 h, 4 h, 6 h, 8 h, 12 h, 24 h time points after administration. The LC-MS/MS analysis method was used to detect the content of the compound in plasma, and the lower limit of quantification of the method was 20 ng/mL. Concentration data in plasma was counted using the metabolic kinetic data analysis software WinNonlin 7.0, and the pharmacokinetic parameters were calculated using the non-compartmental analysis (NCA), as shown in Table 2 below.
# Drug configuration: A certain amount of drug was taken, added with 2% Klucel LF+0.1% Tween 80 aqueous solution to prepare a clear solution or a uniform suspension.
# Administration: Rats were administered by gavage after overnight fasting at a dose of 10 mg/kg.
# Operation: Rats were administered by gavage, and blood was collected from the tail vein before administration and 15 min, 30 min, 1 h, 2 h, 4 h, 6 h, 8 h, 12 h, 24 h after administration, placed in heparinized sample tubes, centrifuged at 4° C., 3500 rpm for 10 min to separate plasma, stored at −20° C., and fed 2 hours after administration.
# Determination of the content of test compounds in rat plasma after drug administration by gavage: 50 μL of plasma samples were thawed at room temperature, added with 130 μL of internal standard working solution (1000 ng/mL, acetonitrile, tolbutamide), vortexed for about 1 min and then centrifuged for 10 min at 4° C. and 13000 rpm. 50 μL of supernatant was mixed with 100 μL of 50% acetonitrile in water, and then the sample was injected for LC/MS/MS analysis.
# [2] = Pharmacokinetic evaluation of cynomolgus monkey (IV and oral); assay type: in vivo, cynomolgus monkeys; conditions: for AUC(0-t): read-out: AUC0-24 h
# Protocol: Test Embodiment 3: Pharmacokinetic Evaluation of Cynomolgus Monkey
# The drug concentrations in the plasma of cynomolgus monkeys were tested at different times after intravenous injection and oral administration of the compounds using cynomolgus monkeys as test animals. The pharmacokinetic behavior of the compounds of the present disclosure in cynomolgus monkeys was studied and their pharmacokinetic characteristics were evaluated. In each group of embodiments, 2 cynomolgus monkeys with similar body weight were selected, administered at a dose of 1 mg/kg by intravenous injection and at a dose of 50 mg/kg by oral administration for a single administration.
# Age of cynomolgus monkeys at the time of administration: about 2-4 years old; body weight: 3.0-4.6 kg at the beginning of administration; 4 monkeys; sex: male.
# Intravenous group: The final concentration of 0.5 mg/mL was prepared for intravenous administration, and the preparation solvent was 5% DMSO+45% PEG400+50% water, and the preparation was in a clarified solution.
# Oral group: The final concentration of 10 mg/mL was prepared for oral administration, and the preparation solvent was 5% DMSO+45% PEG400+50% water, and the preparation was in homogeneous suspension.
# Blood was collected from animals at 5 min, 15 min, 30 min, 1 h, 2 h, 4 h, 7 h, 12 h, 24 h time points after administration. The LC-MS/MS analysis method was used to detect the content of the compound in plasma, and the lower limit of quantification of the method was 20 ng/mL. Concentration data in plasma was counted using the metabolic kinetic data analysis software WinNonlin 7.0, and the pharmacokinetic parameters were calculated using the non-compartmental analysis (NCA), as shown in Table 3 below.
# Determination of the content of test compounds in the plasma of cynomolgus monkeys after drug administration: After blood samples were collected, placed in a marked ice-bath centrifuge tube, and rapidly centrifuged to separate the plasma. Centrifugation conditions: 4000 rpm, 10 minutes, 4° C., and plasma was stored at −40° C. or less for testing.
pEC50 (human GLP-1R receptor),Compound,also measured
8.47,N#Cc1ccc(COc2ccccc2C2CCN(Cc3nc4ccc(C(=O)O)cc4n3C[C@@H]3CCO3)CC2)c(F)c1 [Compound 1],–
9.10,N#Cc1ccc(COc2c(F)cccc2C2CCN(Cc3nc4ccc(C(=O)O)cc4n3C[C@@H]3CCO3)CC2)c(F)c1 [Compound 2],–
9.15,O=C(O)c1ccc2nc(CN3CCC(c4cccc(F)c4OCc4ccc(Cl)cc4F)CC3)n(C[C@@H]3CCO3)c2c1 [Compound 4],AUC(0-inf) [1]: 417 ng·h/mL; Cmax [1]: 90 ng/mL; Tmax [1]: 0.83 h; half-life [1]: 2.11 h
7.82,COc1cccc(C2CCN(Cc3nc4ccc(C(=O)O)cc4n3C[C@@H]3CCO3)CC2)c1OCc1ccc(Cl)cc1F [Compound 5],–
8.09,O=C(O)c1ccc2nc(CN3CCC(c4c(F)cccc4OCc4ccc(Cl)cc4F)CC3)n(C[C@@H]3CCO3)c2c1 [Compound 6],–
8.30,O=C(O)c1ccc2nc(CN3CCC(c4cccc(F)c4OCc4ccccc4F)CC3)n(C[C@@H]3CCO3)c2c1 [Compound 7],–
8.49,O=C(O)c1ccc2nc(CN3CCC(c4ccccc4OCc4ccc(F)cc4F)CC3)n(C[C@@H]3CCO3)c2c1 [Compound 8],–
7.46,O=C(O)c1ccc2nc(CN3CCC(c4ccccc4OCc4ccc(Cl)cn4)CC3)n(C[C@@H]3CCO3)c2c1 [Compound 9],–
7.59,CC(Oc1ccccc1C1CCN(Cc2nc3ccc(C(=O)O)cc3n2C[C@@H]2CCO2)CC1)c1ccc(Cl)cc1F (some centres unmarked) [Compound 10],–
8.54,O=C(O)c1ccc2nc(CN3CCC(c4ccccc4OCc4ccc(Cl)cc4Cl)CC3)n(C[C@@H]3CCO3)c2c1 [Compound 11],–
9.00,Cc1ccc(COc2ccccc2C2CCN(Cc3nc4ccc(C(=O)O)cc4n3C[C@@H]3CCO3)CC2)c(F)c1 [Compound 12],AUC(0-inf) [1]: 1320 ng·h/mL; Cmax [1]: 1020 ng/mL; Tmax [1]: 0.25 h; half-life [1]: 2.68 h
8.24,O=C(O)c1ccc2nc(CN3CCC(c4ccc(F)cc4OCc4ccc(Cl)cc4F)CC3)n(C[C@@H]3CCO3)c2c1 [Compound 13],–
8.43,O=C(O)c1ccc2nc(CN3CCC(c4cc(F)ccc4OCc4ccc(Cl)cc4F)CC3)n(C[C@@H]3CCO3)c2c1 [Compound 14],–
8.12,O=C(O)c1ccc2nc(CN3CCC(c4ccccc4NCc4ccc(Cl)cc4F)CC3)n(C[C@@H]3CCO3)c2c1 [Compound 15],–
< 7.00,CN(Cc1ccc(Cl)cc1F)c1ccccc1C1CCN(Cc2nc3ccc(C(=O)O)cc3n2C[C@@H]2CCO2)CC1 [Compound 16],–
7.28,O=C(O)c1ccc2nc(CN3CCC(c4ccccc4SCc4ccc(Cl)cc4F)CC3)n(C[C@@H]3CCO3)c2c1 [Compound 17],–

pEC50 (human GLP-1R receptor),Compound,also measured
7.97,O=C(O)c1ccc2nc(CN3CCN(c4ccccc4OCc4ccc(Cl)cc4F)CC3)n(C[C@@H]3CCO3)c2c1 [Compound 18],–
< 7.00,O=C(O)c1ccc2nc(CC3CCN(c4ccccc4OCc4ccc(Cl)cc4F)CC3)n(C[C@@H]3CCO3)c2c1 [Compound 19],–
7.61,O=C(O)c1ccc2nc(Cc3ccc(-c4ccccc4OCc4ccc(Cl)cc4F)cc3)n(C[C@@H]3CCO3)c2c1 [Compound 20],–
< 7.00,O=C(O)c1ccc2nc(CC3CCC(c4ccccc4OCc4ccc(Cl)cc4F)CC3)n(C[C@@H]3CCO3)c2c1 (some centres unmarked) [Compound 21],–
8.68,O=C(O)c1ccc2nc(CN3CCC(c4ccccc4OCc4ccc(Cl)cc4F)CC3)n(C[C@@H]3CCO3)c2n1 [Compound 22],–
< 7.00,O=C(O)c1ccc2nc(C3(N4CCC(c5ccccc5OCc5ccc(Cl)cc5F)CC4)CC3)n(C[C@@H]3CCO3)c2c1 [Compound 23],–
< 7.00,Cn1c(CN2CCC(c3ccccc3OCc3ccc(Cl)cc3F)CC2)nc2ccc(C(=O)O)cc21 [Compound 24],–
< 7.00,CCn1cncc1Cn1c(CN2CCC(c3ccccc3OCc3ccc(Cl)cc3F)CC2)nc2ccc(C(=O)O)cc21 [Compound 25],–
8.74,[2H]C([2H])(Oc1ccccc1C1CCN(Cc2nc3ccc(C(=O)O)cc3n2C[C@@H]2CCO2)CC1)c1ccc(Cl)cc1F [Compound 26],–
8.64,[2H]C([2H])(c1nc2ccc(C(=O)O)cc2n1C[C@@H]1CCO1)N1CCC(c2ccccc2OCc2ccc(Cl)cc2F)CC1 [Compound 27],–
< 7.00,CC1(c2ccccc2OCc2ccc(Cl)cc2F)CCN(Cc2nc3ccc(C(=O)O)cc3n2C[C@@H]2CCO2)CC1 [Compound 28],–
< 7.00,CC1CN(Cc2nc3ccc(C(=O)O)cc3n2C[C@@H]2CCO2)CCC1c1ccccc1OCc1ccc(Cl)cc1F (some centres unmarked) [Compound 29],–
< 7.00,CC1CN(Cc2nc3ccc(C(=O)O)cc3n2C[C@@H]2CCO2)CC(C)C1c1ccccc1OCc1ccc(Cl)cc1F (some centres unmarked) [Compound 30],–
–,"N#Cc1ccc(COc2cccc(C3CCN(Cc4nc5ccc(C(=O)O)cc5n4C[C@@H]4CCO4)CC3)n2)c(F)c1 [PF-06882961, reference compound]","AUC(0-inf) [1]: 179 ng·h/mL; Cmax [1]: 55 ng/mL; Tmax [1]: 0.42 h; half-life [1]: 6.88 h; F ([2]; 50 mg/kg PO vs 1 mg/kg IV, oral bioavailability): 8.0%; Cmax ([2]; male, 1 mg/kg IV, plasma): 2220 ng/mL; Tmax ([2]; male, 1 mg/kg IV, plasma): 0.083 h; clearance ([2]; male, 1 mg/kg IV, plasma): 15.9 mL/min/kg; half-life ([2]; male, 1 mg/kg IV, plasma): 1.14 h; AUC(0-t) ([2]; male, 1 mg/kg IV, plasma): 1070 ng·h/mL; Cmax ([2]; male, 50 mg/kg PO, plasma): 2050 ng/mL; Tmax ([2]; male, 50 mg/kg PO, plasma): 1.75 h; half-life ([2]; male, 50 mg/kg PO, plasma): 10.9 h; concentration at 24 h ([2]; male, 50 mg/kg PO, plasma, 24 h, read-out: C24 h): 41.4 ng/mL; AUC(0-t) ([2]; male, 50 mg/kg PO, plasma): 4330 ng·h/mL"
9.00,"O=C(O)c1ccc2nc(CN3CCC(c4cccc(OCc5ccc(Cl)cc5F)n4)CC3)n(C[C@@H]3CCO3)c2c1 [Ref-01, reference compound]",AUC(0-inf) [1]: 351 ng·h/mL; Cmax [1]: 105 ng/mL; Tmax [1]: 0.33 h; half-life [1]: 3.2 h
9.00,"O=C(O)c1ccc2nc(CN3CCC(c4cccnc4OCc4ccc(Cl)cc4F)CC3)n(C[C@@H]3CCO3)c2c1 [Ref-02, reference compound]",AUC(0-inf) [1]: 229 ng·h/mL; Cmax [1]: 171 ng/mL; Tmax [1]: 0.25 h; half-life [1]: 5.52 h
